Here are results for 13 compounds from patent publication US10399988B2, “4-aminopyrazolo[3,4-d]pyrimidinylazabicyclo derivatives and pharmaceutical composition comprising the same” (Daewoong Pharmaceutical Co., Ltd., priority 2016, dated 2019).

A value given as a limit tells only on which side of the number the result lay.

One experiment has as its target T1, ITK (Homo sapiens, UniProt Q08881).
T1 construct: purchased Promega Corporation
T1 sequence (Q08881 1-620): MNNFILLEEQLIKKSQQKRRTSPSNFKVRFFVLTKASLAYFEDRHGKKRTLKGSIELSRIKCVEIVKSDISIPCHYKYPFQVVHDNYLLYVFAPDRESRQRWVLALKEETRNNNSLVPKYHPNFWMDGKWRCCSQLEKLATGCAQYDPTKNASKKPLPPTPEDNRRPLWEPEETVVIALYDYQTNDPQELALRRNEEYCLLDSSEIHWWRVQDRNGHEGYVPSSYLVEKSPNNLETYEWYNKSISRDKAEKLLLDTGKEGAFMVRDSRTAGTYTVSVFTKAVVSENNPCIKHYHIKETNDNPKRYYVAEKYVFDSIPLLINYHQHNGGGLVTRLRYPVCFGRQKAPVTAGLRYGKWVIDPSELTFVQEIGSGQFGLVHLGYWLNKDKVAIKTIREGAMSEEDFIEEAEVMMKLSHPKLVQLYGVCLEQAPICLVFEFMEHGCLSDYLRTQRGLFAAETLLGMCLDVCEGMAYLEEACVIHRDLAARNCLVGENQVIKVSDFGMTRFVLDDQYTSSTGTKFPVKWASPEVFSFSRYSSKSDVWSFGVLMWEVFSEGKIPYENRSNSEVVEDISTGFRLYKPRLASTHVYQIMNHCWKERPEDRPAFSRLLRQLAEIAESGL
The experiment in a line: Inhibitory activity against ITK (ADP-Glo + ITK Kinase enzyme system kit); selectivity BTK vs. ITK. The format is biochemical. Conditions: for IC50: ITK enzyme 0.4 ng/uL, ATP 25 uM, luminescence, duplicate; for Selectivity (based on IC50): selectivity for the inhibitory activity of BTK vs. ITK, Equation 1.

A further experiment addresses BTK (Homo sapiens, UniProt Q06187). Nature of the experiment: Inhibitory activity against BTK (ADP-Glo + BTK Kinase enzyme system kit).

BTK, sequence (Q06187 whole entry): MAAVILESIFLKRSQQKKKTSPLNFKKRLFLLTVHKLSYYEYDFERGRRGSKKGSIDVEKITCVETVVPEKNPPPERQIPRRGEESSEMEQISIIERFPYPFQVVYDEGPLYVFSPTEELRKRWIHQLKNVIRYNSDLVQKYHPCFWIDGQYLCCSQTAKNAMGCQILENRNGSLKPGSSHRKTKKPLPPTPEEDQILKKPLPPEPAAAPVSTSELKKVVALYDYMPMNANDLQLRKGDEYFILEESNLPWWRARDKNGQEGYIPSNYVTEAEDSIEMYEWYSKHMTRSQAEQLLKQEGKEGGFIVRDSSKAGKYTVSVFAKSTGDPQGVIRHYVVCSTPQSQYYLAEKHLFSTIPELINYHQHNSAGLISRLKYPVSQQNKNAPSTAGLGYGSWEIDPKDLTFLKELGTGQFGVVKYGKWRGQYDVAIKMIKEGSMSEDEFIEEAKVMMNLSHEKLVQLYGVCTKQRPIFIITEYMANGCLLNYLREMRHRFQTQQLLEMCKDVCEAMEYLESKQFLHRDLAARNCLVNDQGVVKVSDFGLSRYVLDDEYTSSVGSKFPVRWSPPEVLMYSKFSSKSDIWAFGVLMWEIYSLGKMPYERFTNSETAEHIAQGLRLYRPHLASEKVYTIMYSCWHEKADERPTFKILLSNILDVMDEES

Regarding `C#CC(=O)N1CC2CC1C(n1nc(-c3cccc(Oc4ccccc4)c3)c3c(N)ncnc31)C2` (stereo not drawn) [Ex. 15, 1-(6-(4-amino-3-(3-phenoxyphenyl)-1H-pyrazolo[3,4-d]pyrimidin-1-yl)-2-azabicyclo[2.2.1]heptan-2-yl)prop-2-yn-1-one], on ITK, the IC50 was 123 nM and the “Selectivity (based on IC50)” value stood at 58.3. The IC50 on BTK was found to be 2.1 nM.
The matching figures for `C=CC(=O)N1C[C@@H]2C[C@H]1[C@@H](n1nc(-c3ccc(C(=O)Nc4cc(F)ccn4)cc3)c3c(N)ncnc31)C2` [Ex. 72, 4-(1-((1S,4R,6S)-2-acryloyl-2-azabicyclo[2.2.1]heptan-6-yl)-4-amino-1H-pyrazolo[3,4-d]pyrimidin-3-yl)-N-(4-fluoropyridin-2-yl)benzamide]: 47.9 nM, 31.9 and 1.5 nM.
With `C=CC(=O)N1CC2CC1C(n1nc(-c3ccc(C(=O)Nc4ccccn4)cc3)c3c(N)ncnc31)C2` (stereo not drawn) [Ex. 49, 4-(1-(2-acryloyl-2-azabicyclo[2.2.1]heptan-6-yl)-4-amino-1H-pyrazolo[3,4-d]pyrimidin-3-yl)-N-(pyridin-2-yl)benzamide], the IC50 is more than 500 nM at ITK and 3.5 nM on BTK. Besides, the “Selectivity (based on IC50)” value at ITK is given as more than 142.9.
For `C#CC(=O)N1CC2CC1C(n1nc(-c3ccc(C(=O)Nc4ccccc4)cc3)c3c(N)ncnc31)C2` (stereo not drawn) [Ex. 17, 4-(4-amino-1-(2-propioloyl-2-azabicyclo[2.2.1]heptan-6-yl)-1H-pyrazolo[3,4-d]pyrimidin-3-yl)-N-phenylbenzamide] the same measures were more than 1000 nM, 4.7 nM and more than 212.8.
For `C=CC(=O)N1CC2CC1C(n1nc(-c3ccc(C(=O)Nc4cc(C#N)ccn4)cc3)c3c(N)ncnc31)C2` (stereo not drawn) [Ex. 71, 4-(1-(2-acryloyl-2-azabicyclo[2.2.1]heptan-6-yl)-4-amino-1H-pyrazolo[3,4-d]pyrimidin-3-yl)-N-(4-cyanopyridin-2-yl)benzamide] the same measures were 133 nM, 0.9 nM and 147.7.
For `C=CC(=O)N1CC2CC1C(n1nc(-c3ccc(C(=O)Nc4cccc(Cl)c4)cc3)c3c(N)ncnc31)C2` (stereo not drawn) [Ex. 48, 4-(1-(2-acryloyl-2-azabicyclo[2.2.1]heptan-6-yl)-4-amino-1H-pyrazolo[3,4-d]pyrimidin-3-yl)-N-(3-chlorophenyl)benzamide], on ITK, the 50% inhibitory concentration (IC50) stood at 401 nM and the “Selectivity (based on IC50)” value is listed as 85.3. Besides, the half-maximal inhibitory concentration (IC50) at BTK came to 4.7 nM.
Consider `C=CC(=O)N1CC2CC1C(n1nc(-c3ccc(Oc4ccccc4)cc3F)c3c(N)ncnc31)C2` (stereo not drawn) [Ex. 35, 1-(6-(4-amino-3-(2-fluoro-4-phenoxyphenyl)-1H-pyrazolo[3,4-d]pyrimidin-1-yl)-2-azabicyclo[2.2.1]heptan-2-yl)prop-2-en-1-one], for which, at ITK, the IC50 amounted to 132 nM and the “Selectivity (based on IC50)” value was found to be 60.0. Also, the IC50 on BTK was 2.2 nM.
The matching figures for `Nc1ncnc2c1c(-c1ccc(Oc3ccccc3)cc1)nn2C1CC2CC1N(C(=O)/C=C/CN1CCCCC1)C2` (stereo not drawn) [Ex. 63, (E)-1-(6-(4-amino-3-(4-phenoxyphenyl)-1H-pyrazolo[3,4-d]pyrimidin-1-yl)-2-azabicyclo[2.2.1]heptan-2-yl)-4-(piperidin-1-yl)but-2-en-1-one]: more than 500 nM, more than 333.3 and 1.5 nM.
The matching figures for `C=CC(=O)N1C[C@@H]2C[C@@H]1[C@@H](n1nc(-c3ccc(C(=O)Nc4ccccn4)cc3F)c3c(N)ncnc31)C2` [Ex. 85, 4-(1-((1R,4R,6S)-2-acryloyl-2-azabicyclo[2.2.1]heptan-6-yl)-4-amino-1H-pyrazolo[3,4-d]pyrimidin-3-yl)-3-fluoro-N-(pyridin-2-yl)benzamide]: 60.6 nM, 37.9 and 1.6 nM.
For `C=CC(=O)N1CC2CC1C(n1nc(-c3ccc(Oc4cccc(F)c4)cc3)c3c(N)ncnc31)C2` (stereo not drawn) [Ex. 34, 1-(6-(4-amino-3-(4-(3-fluorophenoxy)phenyl)-1H-pyrazolo[3,4-d]pyrimidin-1-yl)-2-azabicyclo[2.2.1]heptan-2-yl)prop-2-en-1-one] the same measures were 308 nM, 69.9 and 4.4 nM.
Consider `C=CC(=O)N1CC2CC1C(n1nc(-c3ccc(Sc4ccccc4)cc3)c3c(N)ncnc31)C2` (stereo not drawn) [Ex. 33, 1-(6-(4-amino-3-(4-(phenylthio)phenyl)-1H-pyrazolo[3,4-d]pyrimidin-1-yl)-2-azabicyclo[2.2.1]heptan-2-yl)prop-2-en-1-one], for which the IC50 is more than 1000 nM at ITK and 3.3 nM on BTK. Moreover, the “Selectivity (based on IC50)” value on ITK was more than 303.0.
For `C=CC(=O)N1CC2CC1C(n1nc(-c3ccc(Oc4cccc(OC)c4)cc3)c3c(N)ncnc31)C2` (stereo not drawn) [Ex. 41, 1-(6-(4-amino-3-(4-(3-methoxyphenoxy)phenyl)-1H-pyrazolo[3,4-d]pyrimidin-1-yl)-2-azabicyclo[2.2.1]heptan-2-yl)prop-2-en-1-one] the same measures were more than 1000 nM, 4.5 nM and more than 222.2.
As for `C=CC(=O)N1CC2CC1C(n1nc(-c3ccc(C(=O)Nc4cc(F)ccn4)cc3)c3c(N)ncnc31)C2` (stereo not drawn) [Ex. 67, 4-(1-(2-acryloyl-2-azabicyclo[2.2.1]heptan-6-yl)-4-amino-1H-pyrazolo[3,4-d]pyrimidin-3-yl)-N-(4-fluoropyridin-2-yl)benzamide], the IC50 at ITK came out at 54.1 nM; on BTK, 0.5 nM. The “Selectivity (based on IC50)” value on ITK worked out at 108.2.
